Experimental data: patent publication US6303101A, “Bismuth compounds” (Nycomed Imaging AS, priority 1995, dated 2001)

Key:
[1] = stability against hydrolysis; assay type: physicochemical; conditions: dissolved in aqueous (25%) tetrahydrofuran, under reflux
Text: When the R1-5 -groups form Bi--C bonds, aryl grou7ps are generally preferred. At least one of the R1-5 -groups should be an aryl group or substituted aryl group. The term "aryl group" here means any aromatic hydrocarbon ring system or aromatic heterocyclic system. Typical ring systems include for example benzene, naphthalene, indene, fluorene, phenalene, phenanthrene, anthracene, fluoranthene, acephenanthrylene, aceanthrylene, triphenylene, pyrene, chrysene, naphthacene, pleiadene, picene, perylene, pentaphene, pentacene, tetraphenylene, hexaphene, hexacene, rubicene, coronene, trinaphthylene, heptaphene, rubicene, coronene, heptacene, pyranthrene, ovalene, furan, thiophene, thianthrene, pyran, isobenzofuran, chromene, xanthene, phenoxathin, pyrrole, imidazole, pyrazole, isothiazole, isoxazole, pyridine, pyrazine, pyrimidine, pyradizine, indolizine, isoindole, indole, indazole, purine, quinolizine, isocaunoline, quinoline, phtalazine, naphyhyridine, quinoxaline, quinazoline, cinnoline, pteridine, carbazole, β-carboline, phenanthridine, acridine, permidine, phenanthroline, phenazine, phenarsazine, phenothiazine, furazan, phenoxazine, isochroman, chroman, indoline and iso-indoline.

Helicobacter pylori = experiment: Minimal Inhibitory Concentrations against Helicobacter pylori on agar plates; assay type: cell-based
Protocol: Activity of bismuth compounds against Helicobarter pylori
Various bismuth compounds were tested in different concentrations against Helicobacter pylori on agar plates. Minimal Inhibitory Concentrations (MIC--values) are given in mg substance per litre.

c1cc[c]([Bi]([c]2ccccc2)[c]2ccccc2)cc1 [triphenylbismuth]
stability against hydrolysis [1]: stable under reflux for many days

Triphenylbismuthine difluoride [Example 16]
Minimal Inhibitory Concentration (MIC - value) (Helicobacter pylori): 8 mg substance per litre

O=[N+]([O-])[O-].O=[N+]([O-])[O-].O=[N+]([O-])[O-].O=[N+]([O-])[O-].[Bi+3].[Bi+3].[Bi+3].[Bi+3].[Bi+3].[O-2].[OH-].[OH-].[OH-].[OH-].[OH-].[OH-].[OH-].[OH-].[OH-] [Bismuth subnitrate, bismuth hydroxide nitrate oxide]
Minimal Inhibitory Concentration (MIC - value) (Helicobacter pylori): 32 mg substance per litre

Tris(2,4,6trimethylphenyl)bismuthine dichloride [Example 15]
Minimal Inhibitory Concentration (MIC - value) (Helicobacter pylori): ≤ 0.25 mg substance per litre
